± gives the expanded uncertainty stated by the source.
Settings: 101.33 kPa, Liquid, Hot wire method

Cc1cccc(C)c1C [1,2,3-trimethylbenzene]
Settings | thermal conductivity [W/m/K] | thermal diffusivity [m2/s]
257.62 K | 0.1341 ± 0.0019 | –
257.83 K | 0.134 ± 0.0019 | –
257.99 K | 0.134 ± 0.0019 | –
258.45 K | – | 8.6e-08 ± 1.9e-09
259 K | – | 8.55e-08 ± 1.9e-09
259.4 K | – | 8.56e-08 ± 1.9e-09
276.36 K | 0.1312 ± 0.0018 | –
276.58 K | 0.1312 ± 0.0018 | –
276.73 K | 0.1311 ± 0.0018 | –
277.15 K | – | 8.25e-08 ± 1.9e-09
277.71 K | – | 8.21e-08 ± 1.8e-09
278.1 K | – | 8.2e-08 ± 1.8e-09
283.35 K | 0.1303 ± 0.0018 | –
283.57 K | 0.1302 ± 0.0018 | –
283.74 K | 0.1302 ± 0.0018 | –
284.17 K | – | 8.15e-08 ± 1.8e-09
284.73 K | – | 8.14e-08 ± 1.8e-09
285.14 K | – | 8.15e-08 ± 1.8e-09
295.58 K | 0.1281 ± 0.0018 | –
295.81 K | 0.1279 ± 0.0018 | –
295.99 K | 0.1279 ± 0.0018 | –
296.43 K | – | 8.04e-08 ± 1.8e-09
297.01 K | – | 8.01e-08 ± 1.8e-09
297.45 K | – | 8.04e-08 ± 1.8e-09
312.79 K | 0.1252 ± 0.0018 | –
313.04 K | 0.1252 ± 0.0018 | –
313.21 K | 0.1251 ± 0.0018 | –
313.65 K | – | 7.79e-08 ± 1.7e-09
314.26 K | – | 7.81e-08 ± 1.7e-09
314.68 K | – | 7.78e-08 ± 1.7e-09
330.74 K | 0.1218 ± 0.0017 | –
330.99 K | 0.1218 ± 0.0017 | –
331.17 K | 0.1217 ± 0.0017 | –
331.59 K | – | 7.49e-08 ± 1.7e-09
332.23 K | – | 7.53e-08 ± 1.7e-09
332.65 K | – | 7.51e-08 ± 1.7e-09

Cc1ccc(C)c(C)c1 [1,2,4-trimethylbenzene]
Settings | thermal conductivity [W/m/K] | thermal diffusivity [m2/s]
257.58 K | 0.1345 ± 0.0011 | –
257.79 K | 0.1344 ± 0.0011 | –
257.93 K | 0.1344 ± 0.0011 | –
258.32 K | – | 8.89e-08 ± 1.7e-09
258.85 K | – | 8.91e-08 ± 1.7e-09
259.23 K | – | 8.92e-08 ± 1.7e-09
276.33 K | 0.1314 ± 0.001 | –
276.54 K | 0.1313 ± 0.001 | –
276.69 K | 0.1312 ± 0.001 | –
277.09 K | – | 8.61e-08 ± 1.7e-09
277.61 K | – | 8.58e-08 ± 1.7e-09
277.99 K | – | 8.6e-08 ± 1.7e-09
283.32 K | 0.1301 ± 0.001 | –
283.54 K | 0.13 ± 0.001 | –
283.68 K | 0.1299 ± 0.001 | –
284.07 K | – | 8.48e-08 ± 1.6e-09
284.63 K | – | 8.52e-08 ± 1.6e-09
284.98 K | – | 8.47e-08 ± 1.6e-09
295.54 K | 0.1277 ± 0.001 | –
295.76 K | 0.1277 ± 0.001 | –
295.91 K | 0.1275 ± 0.001 | –
296.3 K | – | 8.26e-08 ± 1.6e-09
296.84 K | – | 8.28e-08 ± 1.6e-09
297.21 K | – | 8.25e-08 ± 1.6e-09
312.75 K | 0.1244 ± 0.001 | –
312.98 K | 0.1242 ± 0.00099 | –
313.13 K | 0.1241 ± 0.00099 | –
313.53 K | – | 8e-08 ± 1.5e-09
314.08 K | – | 8e-08 ± 1.5e-09
314.44 K | – | 7.96e-08 ± 1.5e-09
330.69 K | 0.1205 ± 0.00096 | –
330.93 K | 0.1205 ± 0.00096 | –
331.09 K | 0.1204 ± 0.00096 | –
331.46 K | – | 7.65e-08 ± 1.5e-09
332.04 K | – | 7.69e-08 ± 1.5e-09
332.43 K | – | 7.68e-08 ± 1.5e-09

Cc1ccccc1C [1,2-dimethylbenzene]
Settings | thermal conductivity [W/m/K] | thermal diffusivity [m2/s]
257.75 K | 0.1368 ± 0.0011 | –
257.96 K | 0.1369 ± 0.0011 | –
258.1 K | 0.1368 ± 0.0011 | –
258.47 K | – | 9.16e-08 ± 1.8e-09
259 K | – | 9.21e-08 ± 1.8e-09
259.35 K | – | 9.19e-08 ± 1.8e-09
277.07 K | 0.1334 ± 0.0011 | –
277.27 K | 0.1333 ± 0.0011 | –
277.42 K | 0.1333 ± 0.0011 | –
277.79 K | – | 8.78e-08 ± 1.7e-09
278.28 K | – | 8.75e-08 ± 1.7e-09
278.66 K | – | 8.79e-08 ± 1.7e-09
295.56 K | 0.1296 ± 0.001 | –
295.78 K | 0.1296 ± 0.001 | –
295.91 K | 0.1294 ± 0.001 | –
296.29 K | – | 8.46e-08 ± 1.6e-09
296.81 K | – | 8.48e-08 ± 1.6e-09
297.15 K | – | 8.42e-08 ± 1.6e-09
312.07 K | 0.1259 ± 0.001 | –
312.29 K | 0.1258 ± 0.001 | –
312.44 K | 0.1257 ± 0.001 | –
312.82 K | – | 8.18e-08 ± 1.6e-09
313.34 K | – | 8.17e-08 ± 1.6e-09
313.7 K | – | 8.15e-08 ± 1.6e-09
328.72 K | 0.1222 ± 0.00098 | –
328.94 K | 0.122 ± 0.00098 | –
329.09 K | 0.1219 ± 0.00098 | –
329.45 K | – | 7.83e-08 ± 1.5e-09
329.98 K | – | 7.83e-08 ± 1.5e-09
330.35 K | – | 7.81e-08 ± 1.5e-09

Cc1cc(C)cc(C)c1 [1,3,5-trimethylbenzene]
Settings | thermal conductivity [W/m/K] | thermal diffusivity [m2/s]
258.66 K | 0.1434 ± 0.0014 | –
258.83 K | 0.1434 ± 0.0014 | –
258.95 K | 0.1433 ± 0.0014 | –
259.23 K | – | 9.77e-08 ± 2e-09
259.67 K | – | 9.83e-08 ± 2e-09
259.96 K | – | 9.82e-08 ± 2e-09
276.88 K | 0.14 ± 0.0014 | –
277.04 K | 0.1398 ± 0.0014 | –
277.16 K | 0.1398 ± 0.0014 | –
277.47 K | – | 9.49e-08 ± 1.9e-09
277.87 K | – | 9.44e-08 ± 1.9e-09
278.16 K | – | 9.45e-08 ± 1.9e-09
296.36 K | 0.1358 ± 0.0013 | –
296.53 K | 0.1356 ± 0.0013 | –
296.66 K | 0.1356 ± 0.0013 | –
296.93 K | – | 8.99e-08 ± 1.8e-09
297.35 K | – | 9.01e-08 ± 1.8e-09
297.65 K | – | 9.02e-08 ± 1.8e-09
313.44 K | 0.1319 ± 0.0013 | –
313.6 K | 0.1317 ± 0.0013 | –
313.73 K | 0.1317 ± 0.0013 | –
314.03 K | – | 8.71e-08 ± 1.8e-09
314.41 K | – | 8.63e-08 ± 1.7e-09
314.7 K | – | 8.63e-08 ± 1.7e-09
331.99 K | 0.1274 ± 0.0012 | –
332.16 K | 0.1274 ± 0.0012 | –
332.28 K | 0.1272 ± 0.0012 | –
332.56 K | – | 8.28e-08 ± 1.7e-09
332.96 K | – | 8.25e-08 ± 1.7e-09
333.24 K | – | 8.21e-08 ± 1.7e-09

C1=CCCC=C1 [1,3-cyclohexadiene]
Settings | thermal conductivity [W/m/K] | thermal diffusivity [m2/s]
258.35 K | 0.1451 ± 0.0014 | –
258.52 K | 0.1449 ± 0.0014 | –
258.62 K | 0.1448 ± 0.0014 | –
258.89 K | – | 8.41e-08 ± 1.7e-09
259.3 K | – | 8.45e-08 ± 1.7e-09
259.56 K | – | 8.41e-08 ± 1.7e-09
264.66 K | 0.1428 ± 0.0014 | –
264.8 K | 0.1426 ± 0.0014 | –
264.89 K | 0.1424 ± 0.0014 | –
265.09 K | – | 7.72e-08 ± 1.6e-09
265.41 K | – | 7.72e-08 ± 1.6e-09
265.61 K | – | 7.69e-08 ± 1.6e-09
279.17 K | 0.138 ± 0.0013 | –
279.31 K | 0.1379 ± 0.0013 | –
279.41 K | 0.1378 ± 0.0013 | –
279.59 K | – | 7.36e-08 ± 1.5e-09
279.93 K | – | 7.41e-08 ± 1.5e-09
280.16 K | – | 7.41e-08 ± 1.5e-09
296.25 K | 0.1334 ± 0.0013 | –
296.51 K | 0.1332 ± 0.0013 | –
296.69 K | 0.1331 ± 0.0013 | –
297.24 K | – | 8.95e-08 ± 1.8e-09
297.94 K | – | 8.98e-08 ± 1.8e-09
298.42 K | – | 8.98e-08 ± 1.8e-09
313.95 K | 0.1278 ± 0.0012 | –
314.22 K | 0.1276 ± 0.0012 | –
314.41 K | 0.1275 ± 0.0012 | –
314.96 K | – | 8.51e-08 ± 1.7e-09
315.67 K | – | 8.53e-08 ± 1.7e-09
316.17 K | – | 8.51e-08 ± 1.7e-09
328.56 K | 0.1232 ± 0.0012 | –
328.84 K | 0.1231 ± 0.0012 | –
329.08 K | 0.1231 ± 0.0012 | –
329.6 K | – | 8.17e-08 ± 1.6e-09
330.32 K | – | 8.17e-08 ± 1.6e-09
330.99 K | – | 8.19e-08 ± 1.6e-09

From the NIST ThermoML archive (doi:10.1021/je034162x)
